Assay results published in US20250195536A1, “BICYCLOOCTANE KRAS INHIBITORS” (Incyte Corporation, priority 2023, published 2025).

Experiments:
[1] = Caco2 assay (permeability, Papp A-B); assay type: in vitro ADME; settings: human, Caco-2, absorptive direction (A-B), 50 μM test compound, 4% BSA in receiver
Experimental: Caco-2 cells are grown at 37° C. in an atmosphere of 5% CO2 in DMEM growth medium supplemented with 10% (v/v) fetal bovine serum, 1% (v/v) nonessential amino acids, penicillin (100 U/mL), and streptomycin (100 μg/mL). Confluent cell monolayers are subcultured every 7 days or 4 days for Caco-2 by treatment with 0.05% trypsin containing […]. Caco-2 cells are seeded in 96-well Transwell plates. The seeding density for Caco-2 cells is 14,000 cells/well. DMEM growth medium is replaced every other day after seeding. Cell monolayers are used for transport assays between 22 and 25 days for Caco-2 cells.
Cell culture medium is removed and replaced with HBSS. To measure the TEER, the HBSS is added into the donor compartment (apical side) and receiver compartment (basolateral side). The TEER is measured by using a REMS Autosampler to ensure the integrity of the cell monolayers. Caco-2 cell monolayers with TEER values 300 Ω·cm^2 are used for transport experiments. To determine the Papp in the absorptive direction (A-B), solution of test compound (50 μM) in HBSS is added to the donor compartment (apical side), while HBSS solution with 4% BSA is added to the receiver compartment (basolateral side). The apical volume was 0.075 mL, and the basolateral volume is 0.25 mL. The incubation period is 120 min. at 37° C. in an atmosphere of 5% CO2. At the end of the incubation period, samples from the donor and receiver sides are removed and an equal volume of MeCN is added for protein precipitation. The supernatants are collected after centrifugation (3000 rpm, Allegra X-14R Centrifuge from Beckman Coulter, Indianapolis, IN) for LCMS analysis. The permeability value is determined according to the equation:
Papp(cm/s)=(F*VD)/(SA*MD),
where the flux rate (F, mass/time) is calc. from the slope of cumulative amounts of compound of interest on the receiver side, SA is the surface area of the cell membrane, VD is the donor volume, and MD is the initial amount of the solution in the donor chamber.
The symbol “+” indicates a Caco-2 value of ≤0.5, “++” indicates a Caco-2 value of >0.5 but ≤1; and “+++” indicates a Caco-2 value of >1. “NA” indicates Caco-2 value not available.

KRAS G12D = KRAS G12D (Homo sapiens, UniProt P01116, G12D); test: GDP-GTP exchange assay (KRAS G12D); assay type: biochemical; settings: bodipy-GDP/GppNHp exchange with SOS1; 4 h pre-incubation, 2 h reaction;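 also: one dagger IC50 up to 100 nM and two daggers above 100 nM up to 1 μM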
Outline: (§1)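 Bodipy-GDP-loaded KRAS (2.5 nM final) was pre-incubated 4 h at r.t. with inhibitor in Hepes pH 7.5 buffer with MgCl2, then exchange started with GppNHp (500 μM) and SOS1 (150 nM) final. Fluorescence (ex 485/em 520 nm) read after 2 h for G12D, 3 h for G12V; IC50 from four-parameter logistic fit.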

KRAS G12V = KRAS G12V (Homo sapiens, UniProt P01116, G12V); test: GDP-GTP exchange assay (KRAS G12V); assay type: biochemical; settings: bodipy-GDP/GppNHp exchange with SOS1; 3 h incubation after GppNHp-SOS1;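 also: one dagger IC50 up to 100 nM and two daggers above 100 nM up to 1 μM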
Outline: as §1

Sequence of KRAS G12V (P01116 1-188 isoform P01116-2 G12V): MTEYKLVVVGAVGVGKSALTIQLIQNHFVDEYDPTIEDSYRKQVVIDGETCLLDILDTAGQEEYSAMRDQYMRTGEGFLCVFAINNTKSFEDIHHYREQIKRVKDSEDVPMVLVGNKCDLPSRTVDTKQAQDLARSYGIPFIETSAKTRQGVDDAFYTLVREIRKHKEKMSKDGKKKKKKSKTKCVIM
Sequence of KRAS G12D (P01116 1-188 isoform P01116-2 G12D): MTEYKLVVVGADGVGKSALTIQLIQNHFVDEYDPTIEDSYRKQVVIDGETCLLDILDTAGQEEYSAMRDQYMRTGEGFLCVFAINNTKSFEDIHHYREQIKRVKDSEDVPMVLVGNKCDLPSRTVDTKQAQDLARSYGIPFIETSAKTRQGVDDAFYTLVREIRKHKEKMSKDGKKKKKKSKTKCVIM

SMILES	Papp A→B at 120 min, 50 μM [1]	G12D_exchange (KRAS_G12D exchange assay IC50) (KRAS G12D)	G12V_exchange (KRAS_G12V exchange assay IC50) (KRAS G12V)
Cc1nc2c(F)c(-c3cccc(Cl)c3Cl)c(CCC#N)cc2c2c1cc([C@H]1[C@H]3C[C@H](CN(c4cccc(OC(F)F)c4)C3)N1C(=O)C1CC1)n2[C@H]1[C@H]2CN[C@@H]1C2 (atropisomer, axis not shown; (Ra)) [Example 26, 3-((Ra)-1-((1R,4R,5S)-2-azabicyclo[2.1.1]hexan-5-yl)-2-((1S,5R,7R)-6-(cyclopropanecarbonyl)-3-(3-(difluoromethoxy)phenyl)-3,6-diazabicyclo[3.2.1]octan-7-yl)-7-(2,3-dichlorophenyl)-6-fluoro-4-methyl-1H-pyrrolo[3,2-c]quinolin-8-yl)propanenitrile]	≤ 0.5 ×10⁻⁶ cm/s	††	†
Cc1nc2c(F)c(-c3cccc(Cl)c3Cl)c(CCC#N)cc2c2c1cc([C@H]1[C@H]3C[C@H](CN(c4nccc(C(F)(F)F)c4F)C3)N1C(=O)C1CC1)n2[C@H]1[C@H]2CN[C@@H]1C2 (atropisomer, axis not shown; (Ra)) [Example 50, 3-((Ra)-1-((1R,4R,5S)-2-azabicyclo[2.1.1]hexan-5-yl)-2-((1S,5R,7R)-6-(cyclopropanecarbonyl)-3-(3-fluoro-4-(trifluoromethyl)pyridin-2-yl)-3,6-diazabicyclo[3.2.1]octan-7-yl)-7-(2,3-dichlorophenyl)-6-fluoro-4-methyl-1H-pyrrolo[3,2-c]quinolin-8-yl)propanenitrile]	≤ 0.5 ×10⁻⁶ cm/s	††	†
Cc1nc2c(F)c(-c3cccc(Cl)c3Cl)c(CCC#N)cc2c2c1cc([C@H]1[C@H]3C[C@H](CN(c4cc(C(F)F)c(F)cn4)C3)N1C(=O)C1CC1)n2[C@H]1[C@H]2CN[C@@H]1C2 (atropisomer, axis not shown; (Ra)) [Example 85, 3-((Ra)-1-((1R,4R,5S)-2-azabicyclo[2.1.1]hexan-5-yl)-2-((1S,5R,7R)-6-(cyclopropanecarbonyl)-3-(4-(difluoromethyl)-5-fluoropyridin-2-yl)-3,6-diazabicyclo[3.2.1]octan-7-yl)-7-(2,3-dichlorophenyl)-6-fluoro-4-methyl-1H-pyrrolo[3,2-c]quinolin-8-yl)propanenitrile]	≤ 0.5 ×10⁻⁶ cm/s	†	†
COC(=O)N1[C@@H]2C[C@@H](CN(c3cc(C(C)(F)F)ncn3)C2)[C@@H]1c1cc2c(C)nc3c(F)c(-c4cccc(Cl)c4Cl)c(CCC#N)cc3c2n1[C@H]1[C@H]2CN[C@@H]1C2 (atropisomer, axis not shown; (Ra)) [Example 124, Methyl (1 S,5R,7R)-7-((Ra)-1-((1R,4R,5S)-2-azabicyclo[2.1.1]hexan-5-yl)-8-(2-cyanoethyl)-7-(2,3-dichlorophenyl)-6-fluoro-4-methyl-1H-pyrrolo[3,2-c]quinolin-2-yl)-3-(6-(1,1-difluoroethyl)pyrimidin-4-yl)-3,6-diazabicyclo[3.2.1]octane-6-carboxylate]	≤ 0.5 ×10⁻⁶ cm/s	†	†
Cc1nc2c(F)c(-c3cccc(Cl)c3Cl)c(CCC#N)cc2c2c1cc([C@H]1[C@H]3C[C@H](CN(c4cccc(C(F)F)n4)C3)N1C(=O)C1CC1)n2[C@H]1[C@H]2CN[C@@H]1C2 (atropisomer, axis not shown; (Ra)) [Example 88, 3-((Ra)-1-((1R,4R,5S)-2-azabicyclo[2.1.1]hexan-5-yl)-2-((1S,5R,7R)-6-(cyclopropanecarbonyl)-3-(6-(difluoromethyl)pyridin-2-yl)-3,6-diazabicyclo[3.2.1]octan-7-yl)-7-(2,3-dichlorophenyl)-6-fluoro-4-methyl-1H-pyrrolo[3,2-c]quinolin-8-yl)propanenitrile]	≤ 0.5 ×10⁻⁶ cm/s	†	†

Now from value to molecule:

Papp A→B at 120 min, 50 μM [1]	G12D_exchange (KRAS_G12D exchange assay IC50) (KRAS G12D)	G12V_exchange (KRAS_G12V exchange assay IC50) (KRAS G12V)	SMILES
≤ 0.5 ×10⁻⁶ cm/s	†	†	Cc1nc2c(F)c(-c3cccc(Cl)c3Cl)c(CCC#N)cc2c2c1cc([C@H]1[C@H]3C[C@H](CN(c4cnsc4)C3)N1C(=O)C1CC1)n2[C@H]1[C@H]2CN[C@@H]1C2 (atropisomer, axis not shown; (Ra)) [Example 104, 3-((Ra)-1-((1R,4R,5S)-2-azabicyclo[2.1.1]hexan-5-yl)-2-((1S,5R,7R)-6-(cyclopropanecarbonyl)-3-(isothiazol-4-yl)-3,6-diazabicyclo[3.2.1]octan-7-yl)-7-(2,3-dichlorophenyl)-6-fluoro-4-methyl-1H-pyrrolo[3,2-c]quinolin-8-yl)propanenitrile]
≤ 0.5 ×10⁻⁶ cm/s	†	†	Cc1nc2c(F)c(-c3cccc(Cl)c3Cl)c(CCC#N)cc2c2c1cc([C@H]1[C@H]3C[C@H](CN(c4cnccn4)C3)N1C(=O)C1CC1)n2[C@H]1[C@H]2CN[C@@H]1C2 (atropisomer, axis not shown; (Ra)) [Example 40, 3-((Ra)-1-((1R,4R,5S)-2-azabicyclo[2.1.1]hexan-5-yl)-2-((1S,5R,7R)-6-(cyclopropanecarbonyl)-3-(pyrazin-2-yl)-3,6-diazabicyclo[3.2.1]octan-7-yl)-7-(2,3-dichlorophenyl)-6-fluoro-4-methyl-1H-pyrrolo[3,2-c]quinolin-8-yl)propanenitrile]
≤ 0.5 ×10⁻⁶ cm/s	††	†	Cc1nc2c(F)c(-c3cccc(Cl)c3Cl)c(CCC#N)cc2c2c1cc([C@H]1[C@H]3C[C@H](CN(c4cccc(C#N)c4)C3)N1C(=O)C1CC1)n2[C@H]1[C@H]2CN[C@@H]1C2 (atropisomer, axis not shown; (Ra)) [Example 17, 3-((1S,5R,7R)-7-((Ra)-1-((1R,4R,5S)-2-azabicyclo[2.1.1]hexan-5-yl)-8-(2-cyanoethyl)-7-(2,3-dichlorophenyl)-6-fluoro-4-methyl-1H-pyrrolo[3,2-c]quinolin-2-yl)-6-(cyclopropanecarbonyl)-3,6-diazabicyclo[3.2.1]octan-3-yl)benzonitrile]
≤ 0.5 ×10⁻⁶ cm/s	†	†	COc1ccnc(N2C[C@@H]3C[C@H](C2)N(C(=O)C2CC2)[C@H]3c2cc3c(C)nc4c(F)c(-c5cccc(Cl)c5Cl)c(CCC#N)cc4c3n2[C@H]2[C@H]3CN[C@@H]2C3)n1 (atropisomer, axis not shown; (Ra)) [Example 42, 3-((Ra)-1-((1R,4R,5S)-2-azabicyclo[2.1.1]hexan-5-yl)-2-((1S,5R,7R)-6-(cyclopropanecarbonyl)-3-(4-methoxypyrimidin-2-yl)-3,6-diazabicyclo[3.2.1]octan-7-yl)-7-(2,3-dichlorophenyl)-6-fluoro-4-methyl-1H-pyrrolo[3,2-c]quinolin-8-yl)propanenitrile]
0.5 to 1 ×10⁻⁶ cm/s	††	†	Cc1ccc(F)c(N2C[C@@H]3C[C@H](C2)N(C(=O)C2CC2)[C@H]3c2cc3c(C)nc4c(F)c(-c5cccc(Cl)c5Cl)c(CCC#N)cc4c3n2[C@H]2[C@H]3CN[C@@H]2C3)n1 (atropisomer, axis not shown; (Ra)) [Example 52, 3-((Ra)-1-((1R,4R,5S)-2-azabicyclo[2.1.1]hexan-5-yl)-2-((1S,5R,7R)-6-(cyclopropanecarbonyl)-3-(3-fluoro-6-methylpyridin-2-yl)-3,6-diazabicyclo[3.2.1]octan-7-yl)-7-(2,3-dichlorophenyl)-6-fluoro-4-methyl-1H-pyrrolo[3,2-c]quinolin-8-yl)propanenitrile]
